Measured values taken from patent US20180360845A1, “MUSCARINIC COMBINATION OF A SELECTIVE M2-ANTAGONIST AND A PERIPHERAL NON-SELECTIVE ANTAGONIST FOR TREATING HYPOCHOLINERGIC DISORDERS” (CHASE PHARMACEUTICALS CORPORATION, priority 2015, published 2018).
One block for each compound: values may come before it.

Columns and labels:
[1] = T-maze continuous alternation task (T-CAT) with solifenacin and otenzepad; assay type: in vivo, Male Swiss mice
Text: Evaluation of Cognition with Solifenacin and Otenzepad in the T-Maze Alternation Task in Mice The T-maze continuous alternation task (T-CAT) is useful as model for studying compounds with cognitive enhancing properties. The T-maze consists of 2 choice arms and 1 start arm mounted to a square centre. Manual doors are provided to close specific arms during the force choice alternation task. Male Swiss mice (4-6 weeks old), N=10 per treatment group were used, and were pre-treated with: • Solifenacin at the dose that blocked fecal pellet excretion in Experiment 2 of Example 1. […] Mice were randomly assigned to one of the different experimental treatment groups. Each animal was identified by its group name, cage number, series (day) of experiment, and number (1 to 10) written with permanent ink on the tail. The T-maze apparatus is made of gray Plexiglas with a main stem (55 cm long×10 cm wide×20 cm high) and two arms (30 cm long×10 cm wide×20 cm high) positioned at 90 degree angle relative to the main stem. […] The percentage of alternation over the 14 free-choice trials was determined for each mouse and was used as an index of working memory performance. […] The drug-induced improvement of memory was calculated by setting the respective response of the saline/vehicle as 100% and that of the test group as 0% reversion. […]

[2] = Dose-response to otenzepad in a mouse model of diarrhea (fecal pellet count); assay type: in vivo, Male Swiss mice; conditions: increasing doses of otenzepad, T0 to T+4 h
Text: Male Swiss mice (4-6 weeks old), N=10 per treatment group were used, and treated with either vehicle (vehicle group) or increasing doses of otenzepad, a representative M2-antagonist. Mice were randomly assigned to one of two experimental groups (vehicle; or increasing doses of otenzepad). Each animal was identified by its group name, cage number, series (day) of experiment, and number (1 to 10) written with permanent ink on the tail. Mice were placed individually in cages without any bedding materials. During the experiment the number of fecal pellets was counted at different time-points, starting one hour before the time of the administration of the test compound (T0), as outlined below:
(§1) T−1 h to T0: counting of the accumulated fecal pellets excreted.
T0: administration of the test compound.
T0 to T+2 h: counting of the accumulated fecal pellets excreted.
T+2 h to T+4 h: counting of the accumulated fecal pellets excreted.
(§2) The total number of fecal pellets for each mouse was counted over time. An analysis of variance (ANOVA) was performed on the results. Fisher's Protected Least Significant Difference was used for pairwise comparisons; p values≤0.05 were considered significant. Grubbs' test (http://www.graphpad.com/quickcalcs/Grubbsl.cfm) was used to detect outliers for each parameter in each experimental group.

[3] = cited from earlier work
[4] = aged memory impaired rats; cited from earlier work
[5] = young animals; cited from earlier work
[6] = traumatic brain-injured rats; cited from earlier work
[7] = cited from earlier work; remark: listed apart in the source
[8] = clinical study; cited from earlier work
[9] = cited from earlier work; remark: listed apart in the source
[10] = in vivo; cited from earlier work
[11] = in vivo; cited from earlier work; remark: listed apart in the source
[12] = bilateral intrastriatal infusion, female rats; cited from earlier work
[13] = transdermal, rats, [14C] label; cited from earlier work
[14] = Antagonism of otenzepad-induced diarrhea in mice by solifenacin; assay type: in vivo, Male Swiss mice; conditions: solifenacin 2 to 40 mg/kg given 30 min before otenzepad
Protocol: Male Swiss mice (4-6 weeks old), N=10 per treatment group were used. Animals were pretreated with solifenacin (a representative peripheral muscarinic receptor antagonist) or vehicle; 30 minutes later animals were treated with otenzepad at a dose that caused diarrhea (as determined in Experiment 1). The dose of solifenacin ordinarily ranged from 2 to 40 mg/kg. Mice were placed individually in cages without any bedding materials. During the experiment the number of fecal pellets was counted at different time-points as outlined below:
as §1
T0: administration of solifenacin.
T30 min: administration of vehicle or otenzepad.
T 30 min to T 2.5 h: counting of accumulated fecal pellets excreted.
T+2.5 h to T+4.5 h: counting of accumulated fecal pellets excreted.
as §2, with “comparisons. The” for “comparisons;”, “value≤0.05” for “values≤0.05”, “(http//www at graphpad.com/quickcalcs/Grubbs.cfm)” for “(http://www.graphpad.com/quickcalcs/Grubbsl.cfm)”

[15] = absorbed amount; cited from earlier work

diarrhea (number of fecal pellets) [2]: dose-dependently causes diarrhea
SMILES: CCN(CC)CC1CCCCN1CC(=O)N1c2ccccc2C(=O)Nc2cccnc21 (racemic) [otenzepad, (±)11-[[2-[(diethylamino)methyl]-1-piperidinyl]acetyl]-5,11-dihydro-6H-pyrido[2,3-b][1,4]benzodiazepin-6-one]
cognition (percentage of alternation, working memory) ([1]; two doses of otenzepad, in the presence of solifenacin): improves cognition in a dose-dependent manner | subjects with mild and tolerable adverse events (palpitations, dry mouth, headache) ([3]; 270 to 810 mg/day): about 20% | muscarinic adverse effects ([3]; single oral doses of 120, 240 and 480 mg): does not induce manifest muscarinic adverse effects

SMILES: CCCC(C)(C)C(=O)N(CC)CCCC1CCN(CC(=O)N2c3ccc(Cl)cc3C(=O)Nc3cccnc32)CC1 [BIBN-99, 5,11-dihydro-8-chloro-11-[[4-[3-[(2,2-dimethyl-1-oxopentyl)ethylamino]propyl]-1-piperidinyl]acetyl]-6H-pyrido[2,3-b][1,4]benzodiazepin-6-one]
impaired ACh release and cognitive deficits [4]: reverses, in a dose-dependent manner | scopolamine-induced amnesia [5]: improves scopolamine-induced amnesia | cognitive deficits [6]: attenuate cognitive deficits

SMILES: CCn1nnc(C2=CCCN(C)C2)n1 [Lu 25-109, 5-(2-ethyl-2H-tetrazol-5-yl)-1-methyl-1,2,3,6-tetrahydropyridine]
side effects ([7]; anorexia, nausea, diarrhea, increased sweating, increased with dose): prominent cholinergic side effects | primary and secondary variables versus placebo (antidementia efficacy) ([7]; three doses, 6 months, 496 patients with probable AD): no significant differences | fixed-dose Maximum Tolerated Dose [8]: 150 mg t.i.d.

SMILES: COc1ccc([S+]([O-])c2ccc(C(C#N)N3CCN(C4CCCCC4)CC3)cc2)cc1 (stereo not drawn) [SCH 57790, 4-cyclohexyl-alpha-[4[[4-methoxyphenyl]sulphinyl]-phenyl]-1-piperazineacetonitrile]
brain acetylcholine release ([9]; in vivo): dose-related increase | cognitive performance ([9]; rodents and nonhuman primates): enhances cognitive performance

SMILES: CCCS(=O)(=O)N1CCC(C)(N2CCN([C@@H](C)c3ccc(S(=O)(=O)c4ccc5c(c4)OCO5)cc3)[C@H](C)C2)CC1 [SCH 72788, 4-[4-[1(S)-[4-[(1,3-benzodioxol-5-yl)sulfonyl]phenyl]ethyl]-3(R)-methyl-1-piperazinyl]-4-methyl-1-(propylsulfonyl)piperidine]
ACh release [10]: increases ACh release | activity in a rodent model of cognition [10]: active

SMILES: Cc1cccc(C(=O)N2CCC(N3CCC(C4(c5ccc(S(=O)(=O)c6cccc(Cl)c6)cc5)OCCO4)CC3)CC2)c1N [SCH-217443, 1′-(2-amino-3-methylbenzoyl)-4-[[[(3-chlorophenyl)sulfonyl]phenyl]ethylenedioxymethyl]-1,4′-bipiperidine]
activity in a rat model of cognition [11]: shows activity

SMILES: COc1ccccc1CNCCCCCCNCCCCCCCCNCCCCCCNCc1ccccc1OC [methoctramine, N,N′-bis[6-[(2-methoxybenzyl)amino]hexyl]-1,8-octanediamine]
procedural memory performance [12]: improves procedural memory performance

SMILES: CCN(CC)CC#CCOC(=O)C(O)(c1ccccc1)C1CCCCC1 (centres unmarked) [oxybutynin, 4-diethylaminobut-2-ynyl 2-cyclohexyl-2-hydroxy-2-phenylethanoate]
brain penetration [13]: presence of radiolabel in the brain

SMILES: O=C(O[C@H]1CN2CCC1CC2)N1CCc2ccccc2[C@@H]1c1ccccc1 [solifenacin, (1S)-(3R)-1-azabicyclo[2.2.2]oct-3-yl 3,4-dihydro-1-phenyl-2(1H)-iso-quinolinecarboxylate]
effect of solifenacin on cognitive response to otenzepad (percentage of alternation) ([1]; solifenacin pre-treatment 30 min before otenzepad): did not affect cognitive response to otenzepad | antagonism of otenzepad-induced diarrhea (fecal pellets) [14]: dose-dependently antagonized the diarrhea

SMILES: O=C(O[C@H]1C[C@H]2CC[C@@H](C1)[N+]21CCCC1)C(O)(c1ccccc1)c1ccccc1 [trospium chloride, azoniaspiro[33-benziloyloxy-(1α,5α)-nortropane-8,1′-pyrrolidine] (trospium) chloride]
average plasma half-life [15]: about 18 hours
